Values joined by “and” are separate entries in the source; they are usually repeats but may differ in a detail not shown here. Identical values can stand only once. A value given as a limit tells only on which side of the number the result lay.

This note sets out measurements from PubChem BioAssay AID2060353 (Molecular Pharmacology Branch, DTP, NCI, 2025).

The test system of the test is 521955-158-R2-J5-PDC spheroids with stroma, growth inhibition. The experiment in a line: Anticancer human tumor 521955-158-R2-J5-PDC patient-derived pancreatic carcinoma cell line growth inhibition [TAK]. The settings on record: for viability, T/C: stronger effect = lower value. An excerpt: Combinatorial screen of targeted agents with TAK-243 and ipatasertib in multi-cell type tumor spheroids
A high-throughput screen of multi-cell type tumor spheroids was designed to identify active combinations of targeted small molecules and TAK-243 or ipatasertib. Complex spheroids include a stromal component modeled by human endothelial cells (HUVEC) and fibroblasts modeled by human mesenchymal stem cells (MSCs). The concentration ranges selected for each drug and investigational agent were based upon clinically achievable concentrations if the clinical Cmax of the agent was known.
Compounds. The drugs and investigational agents: TAK-243 (785004), ipatasertib (767898), everolimus (733504), selumetinib (741078), bortezomib (756655), trametinib (758246), ixazomib (758254), vemurafenib (761431), dabrafenib (764134), sapanisertib (764658), alpelisib (765974), and copanlisib (816437), were obtained from the National Cancer Institute (NCI) Developmental Therapeutics Program Chemical Repository. The FDA-approved anticancer drug set is available from the NCI Developmental Therapeutics Program. […] The stock solutions were prepared in dimethyl sulfoxide (DMSO, Sigma-Aldrich, St. Louis, MO, cat. D2650) at 800-fold the tested concentration and stored at -70 degrees C prior to their use. All drugs and investigational agents were tested over a range starting from a high concentration at or near the clinical Cmax and decreasing in half-log increments. If the clinical Cmax for an agent had not been determined, the highest concentration tested was 10 microM.
NCI60 Cell Culture. NCI60 cell lines were obtained from the NCI Developmental Therapeutics Program Tumor Repository. For each lot of cells, the Repository performed Applied Biosystems AmpFLSTR Identifiler testing with PCR amplification to confirm consistency with the published Identifier STR profile for each cell line. Cells were kept in continuous culture for no more than 20 passages. The optimal seeding densities for each of the cell lines at each time point assessed were determined prior to performing the concentration response studies. Briefly, the NCI60 human tumor lines were grown as monolayers in RPMI 1640 medium supplemented with 10% FBS and 2 mmol/L L-glutamine.
An additional 2 lines were from the NCI60 cell line panel including melanomas, MALME-3M and SK-MEL-2. Pooled donor human umbilical vein endothelial cells (HUVEC, Lonza, cat. CC-2519) and human mesenchymal stem cells (hMSC, Lonza, cat. PT-2501) were purchased from Lonza (Walkersville, MD).
PDMR cell lines were grown in complete medium (DC medium): Dulbecco's modified Eagle's medium (DMEM)/F12 supplemented with 5% fetal bovine serum (FBS), 2 mM L-glutamine, 100 U/mL penicillin and 100 µg/ml streptomycin, 0.4 µg/ml hydrocortisone, 10 ng/ml epidermal growth factor (EGF) recombinant human protein, 24 µg/mL adenine, and 0.1 mg/mL primocin. During culture from frozen stock vials, PDMR cells were cultured in the same medium containing 10 µM Y-27632 (see Table 3). The PDCs were cultured in complete DMEM/F12 media without 10 microM Y-27632 dihydrochloride for at least two passages prior to the screen. The pooled donor HUVEC and hMSC were cultured in endothelial cell growth medium 2 (PromoCell, Heidelberg, Germany, cat. C-22011) and mesenchymal stem cell growth medium 2 (PromoCell, cat. C-28009), respectively. For all experiments, HUVEC and hMSC were used at passages </=5.
For the pre-screen, cell seeding densities were determined from a titration spanning the range from 5,000 to 313 cells per well. The mct-spheroids including 60% malignant cells, 25% HUVEC and 15% MSC dispensed as a mixture into U-bottom Ultra-Low Attachment 384-well plates (Corning, NY)
High-throughput Drug Combination Screening.
Prior to their inoculation into 384-well plates, malignant cells, HUVEC, and hMSC were removed from T flasks using TrypLE express (Thermo Fisher Scientific, cat. 12605036) and harvested by centrifugation for 5 min at 233 x g. […]

The mark [1] stands for this setting: curve of first compound, second compound 0.3 µM.
The mark [2] stands for this setting: curve of first compound, second compound 0.949 µM.
The mark [3] stands for this setting: curve of first compound, second compound 3 µM.
The mark [4] stands for this setting: curve of first compound, second compound 9.49 µM.
Where [5] appears, read: curve of first compound, second compound 30 µM.
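Also: spheroids exposed to drugs for seven days before readout.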

On to `CC(C)n1nc(-c2ccc3oc(N)nc3c2)c2c(N)ncnc21`, for which the viability, T/C (as a rule, the ratio of treated to control) is 107% and 99.8% (compound 0.000316 µM); 89.1% and 102% (compound 0.001 µM); 80.7% and 95.7% (compound 0.00316 µM); 79.8% and 95.6% (compound 0.01 µM); 51.6% and 63.9% (compound 0.0316 µM); 39% and 41.8% (compound 0.1 µM). Moreover, the IC50 (as a rule, the midpoint of a concentration-inhibition curve) (curve of compound) is 0.0472 µM and 0.0652 µM.

In the case of `Cc1nc(NC(=O)N2CCCC2C(N)=O)sc1-c1ccnc(C(C)(C)C(F)(F)F)c1` (stereo unspecified) + CC(C)NCC(C(=O)N1CCN(c2ncnc3c2C(C)CC3O)CC1)c1ccc(Cl)cc1, the IC50 runs as follows: under setting [1], 0.909 µM; under setting [2], 0.533 µM; under setting [3], 0.159 µM; under setting [4], 0.123 µM; under setting [5], under 0.0316 µM. The viability, T/C is 109% (second compound 0.3 µM, first compound 0.0316 µM); 84.3% (second compound 0.3 µM, first compound 0.1 µM); 58.2% (second compound 0.3 µM, first compound 0.316 µM); 49% (second compound 0.3 µM, first compound 1 µM); 45.1% (second compound 0.3 µM, first compound 3.16 µM); 30.1% (second compound 0.3 µM, first compound 10 µM). Moreover, the viability, T/C was 76.2% (second compound 0.949 µM, first compound 0.0316 µM); 69% (second compound 0.949 µM, first compound 0.1 µM); 52.5% (second compound 0.949 µM, first compound 0.316 µM); 45% (second compound 0.949 µM, first compound 1 µM); 34.8% (second compound 0.949 µM, first compound 3.16 µM); 27.7% (second compound 0.949 µM, first compound 10 µM). Moreover, the viability, T/C runs as follows: (second compound 3 µM, first compound 0.0316 µM) 78.7%; (second compound 3 µM, first compound 0.1 µM) 54%; (second compound 3 µM, first compound 0.316 µM) 40.6%; (second compound 3 µM, first compound 1 µM) 31.3%; (second compound 3 µM, first compound 3.16 µM) 22.3%; (second compound 3 µM, first compound 10 µM) 15.2%. Also, the viability, T/C (second compound 9.49 µM, first compound 0.0316 µM) was 70.7%; the viability, T/C (second compound 9.49 µM, first compound 0.1 µM) is 55.4%; the viability, T/C (second compound 9.49 µM, first compound 0.316 µM) was 29.5%; the viability, T/C (second compound 9.49 µM, first compound 1 µM) is 19.6%; the viability, T/C (second compound 9.49 µM, first compound 3.16 µM) was 13.7%; the viability, T/C (second compound 9.49 µM, first compound 10 µM) is 8.86%. The viability, T/C is 48% (second compound 30 µM, first compound 0.0316 µM); 42.7% (second compound 30 µM, first compound 0.1 µM); 23.9% (second compound 30 µM, first compound 0.316 µM); 17.2% (second compound 30 µM, first compound 1 µM); 11% (second compound 30 µM, first compound 3.16 µM); 6.07% (second compound 30 µM, first compound 10 µM).

For `CC(C)CC(NC(=O)C(Cc1ccccc1)NC(=O)c1cnccn1)B(O)O` (stereo unspecified), the viability, T/C (compound 31.6 pM) was 94.9% and 116%; the viability, T/C (compound 0.0001 µM) was 90.7% and 91.3%; the viability, T/C (compound 0.000316 µM) was 91.3% and 92.2%; the viability, T/C (compound 0.001 µM) is 95.1% and 117%; the viability, T/C (compound 0.00316 µM) is 105% and 99.9%; the viability, T/C (compound 0.01 µM) is 12.7% and 7.91%. The concentration for half-maximal inhibition (IC50) (curve of compound) was 0.00596 µM and 0.00603 µM.

Regarding `COC1CC2CCC(C)C(O)(O2)C(=O)C(=O)N2CCCCC2C(=O)OC(C(C)CC2CCC(OCCO)C(OC)C2)CC(=O)C(C)C=C(C)C(O)C(OC)C(=O)C(C)CC(C)C=CC=CC=C1C` (stereo unspecified), the viability, T/C by setting is: (compound 0.000316 µM) 102% and 111%; (compound 0.001 µM) 105% and 97.8%; (compound 0.00316 µM) 90.8% and 91.6%; (compound 0.01 µM) 93.4% and 91.1%; (compound 0.0316 µM) 86.8% and 89.5%; (compound 0.1 µM) 73.8% and 66.2%. Further, for the setting “curve of compound”, the IC50 was over 0.1 µM.

With `Cn1cnc2c(F)c(Nc3ccc(Br)cc3Cl)c(C(=O)NOCCO)cc21` + CC(C)NCC(C(=O)N1CCN(c2ncnc3c2C(C)CC3O)CC1)c1ccc(Cl)cc1, the IC50 under setting [1] worked out at 0.0257 µM; the IC50 under setting [2] is under 0.00949 µM; the IC50 under setting [3] is under 0.00949 µM; the IC50 under setting [4] worked out at 0.0202 µM; the IC50 under setting [5] is under 0.00949 µM. The viability, T/C was 64.4% (second compound 0.3 µM, first compound 0.00949 µM); 42.6% (second compound 0.3 µM, first compound 0.03 µM); 36.7% (second compound 0.3 µM, first compound 0.0949 µM); 38.3% (second compound 0.3 µM, first compound 0.3 µM); 27.7% (second compound 0.3 µM, first compound 0.949 µM); 20.4% (second compound 0.3 µM, first compound 3 µM). For the same molecule, the viability, T/C was 48.9% (second compound 0.949 µM, first compound 0.00949 µM); 38.9% (second compound 0.949 µM, first compound 0.03 µM); 28.5% (second compound 0.949 µM, first compound 0.0949 µM); 20.9% (second compound 0.949 µM, first compound 0.3 µM); 15.8% (second compound 0.949 µM, first compound 0.949 µM); 5.06% (second compound 0.949 µM, first compound 3 µM). Besides, the viability, T/C was 44.8% (second compound 3 µM, first compound 0.00949 µM); 38.5% (second compound 3 µM, first compound 0.03 µM); 28.6% (second compound 3 µM, first compound 0.0949 µM); 25% (second compound 3 µM, first compound 0.3 µM); 14.1% (second compound 3 µM, first compound 0.949 µM); 5.64% (second compound 3 µM, first compound 3 µM). The viability, T/C was 61% (second compound 9.49 µM, first compound 0.00949 µM); 45% (second compound 9.49 µM, first compound 0.03 µM); 29% (second compound 9.49 µM, first compound 0.0949 µM); 21.3% (second compound 9.49 µM, first compound 0.3 µM); 13.5% (second compound 9.49 µM, first compound 0.949 µM); 5.67% (second compound 9.49 µM, first compound 3 µM). The viability, T/C (second compound 30 µM, first compound 0.00949 µM) is 40.2%; the viability, T/C (second compound 30 µM, first compound 0.03 µM) was 21.9%; the viability, T/C (second compound 30 µM, first compound 0.0949 µM) was 17.9%; the viability, T/C (second compound 30 µM, first compound 0.3 µM) is 10%; the viability, T/C (second compound 30 µM, first compound 0.949 µM) is 3.77%; the viability, T/C (second compound 30 µM, first compound 3 µM) is 1.5%.
